According to patent US11312723B2, “Pyranopyrazole and pyrazolopyridine immunomodulators for treatment of autoimmune diseases” (The Rockefeller University, priority 2017, dated 2022):

target: Human FXIIa (Homo sapiens (Human), UniProt P00748); test: Factor XIIa (FXIIa) inhibitory activity, chromogenic substrate (Pefachrome XIIa) cleavage; format: biochemical; settings: 10 min pre-incubation, Pefachrome XIIa 400 μM
Experimental: Factor XIIa (FXIIa) Inhibitory Activity:
In a 96-well clear bottom plate, 80 μl of assay buffer was added to each well. Assay buffer consists of 0.5× Hank's Balanced Salt Solution (Invitrogen), buffered with 25 mM HEPES pH 7.4 (Invitrogen) and 0.5× Tris-buffered saline with Tween-20 0.05% (Santa Cruz Biotechnology). Test compounds were first dissolved in DMSO (Sigma) and then 4 μl were added to test wells containing assay buffer. Serial dilutions using an automated multi-channel pipette were used to generate a concentration range of approximately 1-100 μM. Human FXIIa (Enzyme Research Labs) was diluted in assay buffer to a final concentration of 12.5 nM. 80 μl of this enzyme solution was added to the assay wells. The enzyme/compound mixtures were incubated for 10 minutes at room temperature. Chromogenic substrate (Pefachrome XIIa; Enzyme Research Labs) was added to assay wells at a final concentration of 400 μM. The assay plate was spun for 1 minute at 1500 g and then read at 37° C. in a SpectraMax M2 plate reader (λ=405 nm). Activity was quantified as the rate of change in absorbance, which corresponds to the rate of substrate cleavage. IC50 values were determined as the concentration of inhibitor that produced 50% of the rate of change of control wells without any inhibitor. For compounds with activity <1 μM, the assay was repeated with a lower concentration range, typically from 10-1000 nM.

Sequence of Human FXIIa (P00748 373-615): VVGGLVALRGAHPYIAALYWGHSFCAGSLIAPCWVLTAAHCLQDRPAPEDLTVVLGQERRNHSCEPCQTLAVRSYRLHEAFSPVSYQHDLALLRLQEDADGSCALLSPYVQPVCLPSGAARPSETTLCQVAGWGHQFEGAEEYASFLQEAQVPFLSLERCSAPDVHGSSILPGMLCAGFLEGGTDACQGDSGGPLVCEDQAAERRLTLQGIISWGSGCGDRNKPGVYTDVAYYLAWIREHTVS
Sequence of Human FXIIa (P00748 20-372 partner): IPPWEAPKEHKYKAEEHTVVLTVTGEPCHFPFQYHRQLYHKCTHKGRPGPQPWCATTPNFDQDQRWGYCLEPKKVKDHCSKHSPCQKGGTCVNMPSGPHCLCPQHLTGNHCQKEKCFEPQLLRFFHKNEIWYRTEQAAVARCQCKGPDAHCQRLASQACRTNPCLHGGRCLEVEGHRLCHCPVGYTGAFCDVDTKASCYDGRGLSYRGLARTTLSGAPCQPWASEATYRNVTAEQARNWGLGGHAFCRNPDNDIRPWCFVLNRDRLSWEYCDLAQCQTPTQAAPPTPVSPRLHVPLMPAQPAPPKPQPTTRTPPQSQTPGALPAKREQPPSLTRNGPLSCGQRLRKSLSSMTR

IC50 [µM] | SMILES
1.2 | Nc1c2c(nn1C(=O)C1CCNc3ccc(F)cc31)CN(S(=O)(=O)c1ccncc1)CC2 (stereo not shown) [Example 155, (3-amino-6-(pyridin-4-ylsulfonyl)-4,5,6,7-tetrahydro-pyrazolo[3,4-c]pyridin-2-yl)(6-fluoro-1,2,3,4-tetrahydro-quinolin-4-yl)methanone]
0.03 | Cc1cc2c(C(=O)n3nc4c(c3N)CCN(Cc3ccccc3)C4)cccc2[nH]1 [Example 10, (3-amino-6-benzyl-4,5,6,7-tetrahydropyrazolo[3,4-c]pyridin-2-yl)(2-methyl-1H-indol-4-yl)methanone]
1.25 | CN1CCc2nn(C(=O)C3CCNc4ccccc43)c(N)c2C1 (stereo not shown) [Example 86, (3-amino-5-methyl-4,5,6,7-tetrahydro-pyrazolo[4,3-c]pyridin-2-yl)(1,2,3,4-tetrahydro-quinolin-4-yl)methanone]
> 70 | CCCN1CCc2c(N)nn(C(=O)C3CCNc4ccc(F)cc43)c2C1 (stereo not shown) [Example 150, (3-amino-6-propyl-4,5,6,7-tetrahydro-pyrazolo[3,4-c]pyridin-1-yl)(6-fluoro-1,2,3,4-tetrahydro-quinolin-4-yl)methanone]
3 | Cc1cccc2c1NCCC2C(=O)n1nc2c(c1N)CCN(S(C)(=O)=O)C2C (single isomer, unassigned) [Example 79, (3-amino-7-methyl-6-(methylsulfonyl)-4,5,6,7-tetrahydropyrazolo[3,4-c]pyridin-2-yl)(8-methyl-1,2,3,4-tetrahydroquinolin-4-yl)methanone]
> 80 | CS(=O)(=O)N1CCc2c(N)nn(C(=O)C3CCNc4ccc(-c5ccccc5)cc43)c2C1 (stereo not shown) [Example 50, (3-amino-6-(methylsulfonyl)-4,5,6,7-tetrahydropyrazolo[3,4-c]pyridin-1-yl)(6-phenyl-1,2,3,4-tetrahydroquinolin-4-yl)methanone]
> 60 | COc1ccc2c(c1)C(C(=O)n1nc(N)c3c1CN(S(C)(=O)=O)CC3)CCN2 (stereo not shown) [Example 23, (3-amino-6-(methylsulfonyl)-4,5,6,7-tetrahydropyrazolo[3,4-c]pyridin-1-yl)(6-methoxy-1,2,3,4-tetrahydroquinolin-4-yl)methanone]
35 | CS(=O)(=O)N1CCc2c(nn(C(=O)C3CCNc4c(Cl)cccc43)c2N)C1 (single isomer, unassigned) [Example 59, (R*)-(3-amino-6-(methylsulfonyl)-4,5,6,7-tetrahydropyrazolo[3,4-c]pyridin-2-yl)(8-chloro-1,2,3,4-tetrahydroquinolin-4-yl)methanone]
25 | Nc1nn(C(=O)C2CCNc3ccc(F)cc32)c2c1COCC2 (stereo not shown) [Example 75, (3-amino-6,7-dihydropyrano[4,3-c]pyrazol-1(4H)-yl)(6-fluoro-1,2,3,4-tetrahydroquinolin-4-yl)methanone]
> 90 | Cc1ccc2c(c1)C(C(=O)n1nc(N)c3c1CN(S(C)(=O)=O)CC3)CCN2 (stereo not shown) [Example 13, (3-amino-6-(methylsulfonyl)-4,5,6,7-tetrahydropyrazolo[3,4-c]pyridin-1-yl)(6-methyl-1,2,3,4-tetrahydroquinolin-4-yl)methanone]
1.2 | Cc1cc2c(C(=O)n3nc(N)c4c3CN(S(C)(=O)=O)CC4)cccc2[nH]1 [Example 102, (3-amino-6-(methylsulfonyl)-4,5,6,7-tetrahydro-pyrazolo[3,4-c]pyridin-1-yl)(2-methyl-1H-indol-4-yl)methanone]
28 | CS(=O)(=O)N1CCc2c(nn(C(=O)[C@@H]3CCNc4ccccc43)c2N)C1 (single isomer, unassigned) [Example 134, (R*)-(3-amino-6-(methylsulfonyl)-4,5,6,7-tetrahydro-pyrazolo[3,4-c]pyridin-2-yl)(1,2,3,4-tetrahydro-quinolin-4-yl)methanone]
35 | Cc1cccc2c1NCCC2C(=O)n1nc(N)c2c1CN(S(=O)(=O)C1COC1)CC2 (stereo not shown) [Example 187, (3-amino-6-(oxetan-3-ylsulfonyl)-4,5,6,7-tetrahydro-pyrazolo[3,4-c]pyridin-1-yl)(8-methyl-1,2,3,4-tetrahydro-quinolin-4-yl)methanone]
30 | CS(=O)(=O)N1CCc2c(N)nn(C(=O)C3CCNc4ccc(F)cc43)c2C1 (stereo not shown) [Example 17, (3-amino-6-(methylsulfonyl)-4,5,6,7-tetrahydropyrazolo[3,4-c]pyridin-1-yl)(6-fluoro-1,2,3,4-tetrahydroquinolin-4-yl)methanone]
5 | Nc1nn(C(=O)C2CCNc3c(Cl)cccc32)c2c1CCNC2 (stereo not shown) [Example 71, (3-amino-4,5,6,7-tetrahydropyrazolo[3,4-c]pyridin-1-yl)(8-chloro-1,2,3,4-tetrahydroquinolin-4-yl)methanone]
1.4 | COc1ccc2c(c1)C(C(=O)n1nc3c(c1N)CCN(S(C)(=O)=O)C3)CCN2 (stereo not shown) [Example 22, (3-amino-6-(methylsulfonyl)-4,5,6,7-tetrahydropyrazolo[3,4-c]pyridin-2-yl)(6-methoxy-1,2,3,4-tetrahydroquinolin-4-yl)methanone]
> 25 | Cc1cccc2c1NCC[C@H]2C(=O)n1nc2c(c1N)CCN(CCO)C2 (single isomer, unassigned) [Example 205, (R*)-(3-amino-6-(2-hydroxyethyl)-4,5,6,7-tetrahydro-2H-pyrazolo[3,4-c]pyridin-2-yl)(8-methyl-1,2,3,4-tetrahydro-quinolin-4-yl)methanone]
> 60 | Nc1nn(C(=O)C2CCNc3ccc(F)cc32)c2c1CCN(c1ccccc1)C2 (stereo not shown) [Example 29, (3-amino-6-phenyl-4,5,6,7-tetrahydropyrazolo[3,4-c]pyridin-1-yl)(6-fluoro-1,2,3,4-tetrahydroquinolin-4-yl)methanone]
0.09 | Nc1c2c(nn1C(=O)[C@H]1CCNc3c(Cl)cccc31)COCC2 (single isomer, unassigned) [Example 202, (S*)-(3-amino-4,5-dihydropyrano[3,4-c]pyrazol-2(7H)-yl)(8-chloro-1,2,3,4-tetrahydro-quinolin-4-yl)methanone]
2.5 | Cc1cc(F)cc2c1NCCC2C(=O)n1nc2c(c1N)CCN(S(C)(=O)=O)C2 (single isomer, unassigned) [Example 54, (R*)-(3-amino-6-(methylsulfonyl)-4,5,6,7-tetrahydropyrazolo[3,4-c]pyridin-2-yl)(6-fluoro-8-methyl-1,2,3,4-tetrahydroquinolin-4-yl)methanone]
8 | CCN1CCc2c(nn(C(=O)[C@@H]3CCNc4c(C)cccc43)c2N)C1 (single isomer, unassigned) [Example 174, (R*)-(3-amino-6-ethyl-4,5,6,7-tetrahydro-pyrazolo[3,4-c]pyridin-2-yl)(8-methyl-1,2,3,4-tetrahydro-quinolin-4-yl)methanone]
18 | CC(C)CN1CCc2c(N)nn(C(=O)C3CCNc4ccc(F)cc43)c2C1 (stereo not shown) [Example 154, (3-amino-6-isobutyl-4,5,6,7-tetrahydro-pyrazolo[3,4-c]pyridin-1-yl)(6-fluoro-1,2,3,4-tetrahydro-quinolin-4-yl)methanone]
0.2 | Cc1cccc2c1NCC[C@@H]2C(=O)n1nc2c(c1N)CCN(S(=O)(=O)C1COC1)C2 (single isomer, unassigned) [Example 185, (S*)-(3-amino-6-(oxetan-3-ylsulfonyl)-4,5,6,7-tetrahydro-pyrazolo[3,4-c]pyridin-2-yl)(8-methyl-1,2,3,4-tetrahydro-quinolin-4-yl)methanone]
0.04 | Cc1cccc2c1NCC[C@@H]2C(=O)n1nc2c(c1N)CCN(CCO)C2 (single isomer, unassigned) [Example 204, (S*)-(3-amino-6-(2-hydroxyethyl)-4,5,6,7-tetrahydro-2H-pyrazolo[3,4-c]pyridin-2-yl)(8-methyl-1,2,3,4-tetrahydro-quinolin-4-yl)methanone]
> 40 | CCc1cc2c([nH]1)CCCC2C(=O)n1nc(N)c2c1CCN(C(=O)OCc1ccccc1)C2 (stereo not shown) [Example 5, benzyl 3-amino-1-(2-ethyl-4,5,6,7-tetrahydro-1H-indole-4-carbonyl)-6,7-dihydro-1H-pyrazolo[4,3-c]pyridine-5(4H)-carboxylate]
10 | CCc1ccc2c(c1)C(C(=O)n1nc3c(c1N)CCN(S(C)(=O)=O)C3)CCN2 (single isomer, unassigned) [Example 33, (R*)-(3-amino-6-(methylsulfonyl)-4,5,6,7-tetrahydropyrazolo[3,4-c]pyridin-2-yl)(6-ethyl-1,2,3,4-tetrahydroquinolin-4-yl)methanone]
> 100 | Cc1cccc2c1NCCC2C(=O)n1nc(N)c2c1COCC2 (stereo not shown) [Example 200, (3-amino-4,5-dihydropyrano[3,4-c]pyrazol-1(7H)-yl)(8-methyl-1,2,3,4-tetrahydro-quinolin-4-yl)methanone]
0.04 | Cc1cccc2c1NCC[C@@H]2C(=O)n1nc2c(c1N)CCN(S(=O)(=O)N(C)C)C2 (single isomer, unassigned) [Example 180, (S*)-3-amino-N,N-dimethyl-2-(8-methyl-1,2,3,4-tetrahydro-quinoline-4-carbonyl)-4,5-dihydro-2H-pyrazolo[3,4-c]pyridine-6(7H)-sulfonamide]
